Results from patent US7118895B2, “Process for producing aglycon by using diglycosidase and flavor-improved food containing the aglycon and converting agent to be used in the process” (Amano Enzyme Inc., priority 2000, dated 2006).

Legend:
[1] = test system: Diglycosidase derived from P. multicolor; assay: Reactivity toward various isoflavone glycosides (HPLC); type: biochemical, Penicillium multicolor; set-up: glucoside / aglycon: unit not given here; details: 55 °C, pH 4.0
Procedure: Diglycosidase was diluted with an acetate buffer of pH 4.0 to prepare a 0.75 AU/mL enzyme solution. As references, a similar operation was conducted using β-glucosidase (manufactured by Fluka) derived from Aspergillus niger, β-glucosidase (manufactured by Sigma) derived from almond, β-xylosidase derived from pectinase G (manufactured by Amano Enzyme Inc.). Each of purified products of isoflavone glycosides (glycitin, acetylglycitin, malonylglycitin, daidzin, acetyldaidzin, malonyldaidzin, genistin, acetylgenistin, malonylgenistin, all manufactured by Nacalai Tesque, Inc.) was dissolved in methanol to prepare each 2 mM substrate solution. The reaction was carried out by mixing 10 μL of a substrate solution, 200 μL of 20 mM acetate buffer (pH 4.0), and 40 μL of each purified enzyme solution at a total liquid volume of 250 μL. The reaction was carried out at 55° C. and isolation of an aglycon isoflavone from an isoflavone glycoside in the reaction mixture was detected by HLPC at 0, 1, 3, and 6 hours of the reaction.
To the reaction mixture was added 700 μL of ethanol, followed by stirring and ultrasonication. After centrifugation at 15,000 rpm and 4° C. for 10 minutes, the supernatant was filtered through a filter and then the filtrate was applied to HPLC.
The isoflavone glycoside and aglycon isoflavone contained in the filtrate was separated and detected by a high performance liquid chromatography (HPLC, Shimadzu CLASS LC-10 system) using TOSOH TSK gel ODS-80TM column (manufactured by Tosoh Corporation). […] The absorbance at 260 nm was detected by a UV detector (Shimadzu, SPD-10AV). Using purified products (manufactured by Nacalai Tesque, Inc.) of the above isoflavone glycosides and aglycon isoflavones, the isoflavone glycoside and aglycon isoflavone were quantitatively determined according to a calibration curve method. By the way, unless otherwise stated, the measuring conditions of HPLC herein mean those described in the example.

[2] = test system: Crude diglycosidase; assay: Examination of temperature in the conversion into isoflavone aglycons by diglycosidase using soybean materials; type: biochemical, Penicillium multicolor IAM7153; set-up: Decomposition efficiency of glycitin family in roasted soy flour / Decomposition efficiency of daidzin family in roasted soy flour / Decomposition efficiency of genistin family in soymilk / Decomposition efficiency of daidzin family in soymilk / Decomposition efficiency of glycitin family in defatted soybean / Decomposition efficiency of daidzin family in defatted soybean: concentration or dose not given beside the values
Procedure: Into 400 μL of 20 mM acetate buffer of pH 4.0 was suspended 50 mg of each of various soybean materials (roasted soy flour (manufactured by Fuji Shokuryo K.K.), soymilk (manufactured by Gitoh Shokuhin K.K.), defatted soybean (manufactured by Fuji Seiyu K.K.), concentrated soybean protein (manufactured by Fuji Seiyu K.K.)), whereby a substrate solution was prepared. Crude diglycosidase was diluted with 20 mM acetate buffer of pH 4.0 to be the glycosidase activity of 1.88 AU/mL. Fifty μL of the enzyme solution was mixed with the substrate solution and the whole was reacted at 80, 65, 55, 45, 37, or 30° C. at the total volume of 500 μL. To the reaction mixture was added 700 μL of ethanol after 0, 1, 3, and 6 hours of the reaction. After stirring and ultrasonication, the mixture was subjected to centrifugal separation at 15,000 rpm and 4° C. for 10 minutes. The supernatant was filtered through a filter and the existence of isoflavone glycosides and aglycon isoflavones contained in the reaction mixture was detected by HLPC.

[3] = 30° C., heat treatment of enzyme no, reaction time 0 h
[4] = 30° C., heat treatment of enzyme no, reaction time 1 h
[5] = 30° C., heat treatment of enzyme no, reaction time 3 h
[6] = 30° C., heat treatment of enzyme no, reaction time 6 h
[7] = 30° C., heat treatment of enzyme yes, reaction time 6 h
[8] = 45° C., heat treatment of enzyme no, reaction time 0 h
[9] = 45° C., heat treatment of enzyme no, reaction time 1 h
[10] = 45° C., heat treatment of enzyme no, reaction time 3 h
[11] = 45° C., heat treatment of enzyme no, reaction time 6 h
[12] = 45° C., heat treatment of enzyme yes, reaction time 6 h
[13] = 45 °C, heat treatment of enzyme: no, 0 h
[14] = 45 °C, heat treatment of enzyme: no, 1 h
[15] = 45 °C, heat treatment of enzyme: no, 3 h
[16] = 45 °C, heat treatment of enzyme: no, 6 h
[17] = 45 °C, heat treatment of enzyme: yes, 6 h
[18] = 55° C., heat treatment of enzyme no, reaction time 0 h
[19] = 55° C., heat treatment of enzyme no, reaction time 1 h
[20] = 55° C., heat treatment of enzyme no, reaction time 3 h
[21] = 55° C., heat treatment of enzyme no, reaction time 6 h
[22] = 55° C., heat treatment of enzyme yes, reaction time 6 h
[23] = 55 °C, heat treatment of enzyme: no, 0 h
[24] = 55 °C, heat treatment of enzyme: no, 1 h
[25] = 55 °C, heat treatment of enzyme: no, 3 h
[26] = 55 °C, heat treatment of enzyme: no, 6 h
[27] = 55 °C, heat treatment of enzyme: yes, 6 h
[28] = 65° C., heat treatment of enzyme no, reaction time 0 h
[29] = 65° C., heat treatment of enzyme no, reaction time 1 h
[30] = 65° C., heat treatment of enzyme no, reaction time 3 h
[31] = 65° C., heat treatment of enzyme no, reaction time 6 h
[32] = 65° C., heat treatment of enzyme yes, reaction time 6 h
[33] = 65 °C, heat treatment of enzyme: no, 0 h
[34] = 65 °C, heat treatment of enzyme: no, 1 h
[35] = 65 °C, heat treatment of enzyme: no, 3 h
[36] = 65 °C, heat treatment of enzyme: no, 6 h
[37] = 65 °C, heat treatment of enzyme: yes, 6 h
[38] = 80° C., heat treatment of enzyme no, reaction time 0 h
[39] = 80° C., heat treatment of enzyme no, reaction time 1 h
[40] = 80° C., heat treatment of enzyme no, reaction time 3 h
[41] = 80° C., heat treatment of enzyme no, reaction time 6 h
[42] = 80° C., heat treatment of enzyme yes, reaction time 6 h
[43] = 80 °C, heat treatment of enzyme: no, 0 h
[44] = 80 °C, heat treatment of enzyme: no, 1 h
[45] = 80 °C, heat treatment of enzyme: no, 3 h
[46] = 80 °C, heat treatment of enzyme: no, 6 h
[47] = 80 °C, heat treatment of enzyme: yes, 6 h

CC(=O)OC[C@H]1O[C@@H](Oc2ccc3c(=O)c(-c4ccc(O)cc4)coc3c2)[C@H](O)[C@@H](O)[C@@H]1O [acetyldaidzin, 6″-O-acetyldaidzin]
aglycon ([1]; Reaction time 0 h): 0
glucoside ([1]; Reaction time 0 h): 100
aglycon ([1]; Reaction time 1 h): 89.6
glucoside ([1]; Reaction time 1 h): 10.4
aglycon ([1]; Reaction time 3 h): 96.2
glucoside ([1]; Reaction time 3 h): 3.8
aglycon ([1]; Reaction time 6 h): 96.2
glucoside ([1]; Reaction time 6 h): 3.8
Decomposition efficiency of daidzin family in concentrated soybean protein [2, 3]: 44.6%
Decomposition efficiency of daidzin family in defatted soybean [2, 3]: not detected
Decomposition efficiency of daidzin family in concentrated soybean protein [2, 4]: 44.4%
Decomposition efficiency of daidzin family in defatted soybean [2, 4]: not detected
Decomposition efficiency of daidzin family in concentrated soybean protein [2, 5]: 43.9%
Decomposition efficiency of daidzin family in defatted soybean [2, 5]: not detected
Decomposition efficiency of daidzin family in concentrated soybean protein [2, 6]: 43.5%
Decomposition efficiency of daidzin family in defatted soybean [2, 6]: not detected
Decomposition efficiency of daidzin family in concentrated soybean protein [2, 7]: 42.3%
Decomposition efficiency of daidzin family in defatted soybean [2, 7]: not detected
Decomposition efficiency of daidzin family in soymilk ([2]; 30 °C, heat treatment of enzyme: no, 0 h): not detected
Decomposition efficiency of daidzin family in soymilk ([2]; 30 °C, heat treatment of enzyme: no, 1 h): not detected
Decomposition efficiency of daidzin family in soymilk ([2]; 30 °C, heat treatment of enzyme: no, 3 h): not detected
Decomposition efficiency of daidzin family in soymilk ([2]; 30 °C, heat treatment of enzyme: no, 6 h): not detected
Decomposition efficiency of daidzin family in soymilk ([2]; 30 °C, heat treatment of enzyme: yes, 6 h): not detected
Decomposition efficiency of daidzin family in roasted soy flour ([2]; 35 °C, heat treatment of enzyme: no, 0 h): 47.8%
Decomposition efficiency of daidzin family in roasted soy flour ([2]; 35 °C, heat treatment of enzyme: no, 1 h): 46.9%
Decomposition efficiency of daidzin family in roasted soy flour ([2]; 35 °C, heat treatment of enzyme: no, 3 h): 45.3%
Decomposition efficiency of daidzin family in roasted soy flour ([2]; 35 °C, heat treatment of enzyme: no, 6 h): 39.6%
Decomposition efficiency of daidzin family in roasted soy flour ([2]; 35 °C, heat treatment of enzyme: yes, 6 h): 43.8%
Decomposition efficiency of daidzin family in concentrated soybean protein [2, 8]: 44.5%
Decomposition efficiency of daidzin family in defatted soybean [2, 8]: not detected
Decomposition efficiency of daidzin family in concentrated soybean protein [2, 9]: 44.1%
Decomposition efficiency of daidzin family in defatted soybean [2, 9]: not detected
Decomposition efficiency of daidzin family in concentrated soybean protein [2, 10]: 41.5%
Decomposition efficiency of daidzin family in defatted soybean [2, 10]: not detected
Decomposition efficiency of daidzin family in concentrated soybean protein [2, 11]: 42.9%
Decomposition efficiency of daidzin family in defatted soybean [2, 11]: not detected
Decomposition efficiency of daidzin family in concentrated soybean protein [2, 12]: 0.0%
Decomposition efficiency of daidzin family in defatted soybean [2, 12]: not detected
Decomposition efficiency of daidzin family in roasted soy flour [2, 13]: 47.7%
Decomposition efficiency of daidzin family in soymilk [2, 13]: not detected
Decomposition efficiency of daidzin family in roasted soy flour [2, 14]: 42.9%
Decomposition efficiency of daidzin family in soymilk [2, 14]: not detected
Decomposition efficiency of daidzin family in roasted soy flour [2, 15]: 37.9%
Decomposition efficiency of daidzin family in soymilk [2, 15]: not detected
Decomposition efficiency of daidzin family in roasted soy flour [2, 16]: 28.5%
Decomposition efficiency of daidzin family in soymilk [2, 16]: not detected
Decomposition efficiency of daidzin family in roasted soy flour [2, 17]: 42.5%
Decomposition efficiency of daidzin family in soymilk [2, 17]: not detected
Decomposition efficiency of daidzin family in concentrated soybean protein [2, 18]: 44.5%
Decomposition efficiency of daidzin family in defatted soybean [2, 18]: not detected
Decomposition efficiency of daidzin family in concentrated soybean protein [2, 19]: 44.0%
Decomposition efficiency of daidzin family in defatted soybean [2, 19]: not detected
Decomposition efficiency of daidzin family in concentrated soybean protein [2, 20]: 40.6%
Decomposition efficiency of daidzin family in defatted soybean [2, 20]: not detected
Decomposition efficiency of daidzin family in concentrated soybean protein [2, 21]: 37.7%
Decomposition efficiency of daidzin family in defatted soybean [2, 21]: not detected
Decomposition efficiency of daidzin family in concentrated soybean protein [2, 22]: 42.3%
Decomposition efficiency of daidzin family in defatted soybean [2, 22]: not detected
Decomposition efficiency of daidzin family in roasted soy flour [2, 23]: 47.5%
Decomposition efficiency of daidzin family in soymilk [2, 23]: not detected
Decomposition efficiency of daidzin family in roasted soy flour [2, 24]: 42.8%
Decomposition efficiency of daidzin family in soymilk [2, 24]: not detected
Decomposition efficiency of daidzin family in roasted soy flour [2, 25]: 32.5%
Decomposition efficiency of daidzin family in soymilk [2, 25]: not detected
Decomposition efficiency of daidzin family in roasted soy flour [2, 26]: 26.7%
Decomposition efficiency of daidzin family in soymilk [2, 26]: not detected
Decomposition efficiency of daidzin family in roasted soy flour [2, 27]: 43.6%
Decomposition efficiency of daidzin family in soymilk [2, 27]: not detected
Decomposition efficiency of daidzin family in concentrated soybean protein [2, 28]: 44.6%
Decomposition efficiency of daidzin family in defatted soybean [2, 28]: not detected
Decomposition efficiency of daidzin family in concentrated soybean protein [2, 29]: 44.3%
Decomposition efficiency of daidzin family in defatted soybean [2, 29]: not detected
Decomposition efficiency of daidzin family in concentrated soybean protein [2, 30]: 42.9%
Decomposition efficiency of daidzin family in defatted soybean [2, 30]: not detected
Decomposition efficiency of daidzin family in concentrated soybean protein [2, 31]: 41.6%
Decomposition efficiency of daidzin family in defatted soybean [2, 31]: not detected
Decomposition efficiency of daidzin family in concentrated soybean protein [2, 32]: 43.6%
Decomposition efficiency of daidzin family in defatted soybean [2, 32]: not detected
Decomposition efficiency of daidzin family in roasted soy flour [2, 33]: 47.8%
Decomposition efficiency of daidzin family in soymilk [2, 33]: not detected
Decomposition efficiency of daidzin family in roasted soy flour [2, 34]: 43.7%
Decomposition efficiency of daidzin family in soymilk [2, 34]: not detected
Decomposition efficiency of daidzin family in roasted soy flour [2, 35]: 40.2%
Decomposition efficiency of daidzin family in soymilk [2, 35]: not detected
Decomposition efficiency of daidzin family in roasted soy flour [2, 36]: 37.8%
Decomposition efficiency of daidzin family in soymilk [2, 36]: not detected
Decomposition efficiency of daidzin family in roasted soy flour [2, 37]: 46.1%
Decomposition efficiency of daidzin family in soymilk [2, 37]: not detected
Decomposition efficiency of daidzin family in concentrated soybean protein [2, 38]: 44.5%
Decomposition efficiency of daidzin family in defatted soybean [2, 38]: not detected
Decomposition efficiency of daidzin family in concentrated soybean protein [2, 39]: 45.5%
Decomposition efficiency of daidzin family in defatted soybean [2, 39]: not detected
Decomposition efficiency of daidzin family in concentrated soybean protein [2, 40]: 44.7%
Decomposition efficiency of daidzin family in defatted soybean [2, 40]: not detected
Decomposition efficiency of daidzin family in concentrated soybean protein [2, 41]: 43.8%
Decomposition efficiency of daidzin family in defatted soybean [2, 41]: not detected
Decomposition efficiency of daidzin family in concentrated soybean protein [2, 42]: 42.3%
Decomposition efficiency of daidzin family in defatted soybean [2, 42]: not detected
Decomposition efficiency of daidzin family in roasted soy flour [2, 43]: 47.7%
Decomposition efficiency of daidzin family in soymilk [2, 43]: not detected
Decomposition efficiency of daidzin family in roasted soy flour [2, 44]: 49.1%
Decomposition efficiency of daidzin family in soymilk [2, 44]: not detected
Decomposition efficiency of daidzin family in roasted soy flour [2, 45]: 47.9%
Decomposition efficiency of daidzin family in soymilk [2, 45]: not detected
Decomposition efficiency of daidzin family in roasted soy flour [2, 46]: 46.7%
Decomposition efficiency of daidzin family in soymilk [2, 46]: not detected
Decomposition efficiency of daidzin family in roasted soy flour [2, 47]: 45.0%
Decomposition efficiency of daidzin family in soymilk [2, 47]: not detected
